Measurements as given in patent publication US6908915B1, “Tricyclic compounds and their uses as antiarrhythmic antifibrillatory and defibrillatory agents” (Technion Research & Development Foundation Ltd., priority 2000, dated 2005).

Tested on: artificially induced SVF
Test: Transformation of electrically induced SVF to TVF in anesthetized cats (antiarrhythmic defibrillating activity)
Assay type: in vivo
Conditions: intravenous, VF type examined before and 2 to 3 min after drug; for Relative activity in dosage of 1 mg/kg: monohydrochloride
Procedure: 10,11-dihydro-5-[(3-N-alkyl)1-oxopropyl] 5-H-dibenzo[b,f]azepin monohydrochloride, 10,11-dihydro-5-[N-? isopropylamino-2propanol)] 5-H-dibenzo [b,f]azepin monohydrochloride and 11-Oxo-10,11-dihydro-5-[(N-alkyl)1-oxopropyl]-5-H-dibenzo [b,e] [1,4] diazepin hydrochloride were synthesized as is described hereinabove and tested for their effectiveness in transforming SVF to TVF, as described herein. […] The experimental method was as follows.
Hydrochloride salts of the compounds were dissolved in saline. Activity of each compound was tested in cats of both sexes. Cats were anesthetized with 15-25 mg/kg intravenous sodium, pentobarbital. The tested compounds were injected intravenously (1-3 mg/kg). The heart of each experimental subject was exposed through midline thoracotomy, and a room air respirator was applied through a tracheal cannula. Lead II electrocardiogram and intra-arterial blood pressure was recorded on a Grass Polygraph (Grass Instrument Co., Quincy, Mass., USA).
Fibrillating stimuli (a train of rectangular pulses of 2 to 15 V, 100 pulses/sec and duration of 0.1 to 1.0 msec, for a period of 1 sec) were delivered through two silver needle electrodes attached to the pericardium on the left ventricle. Fibrillating stimuli were one and a half to twice the strength of the fibrillating threshold.
VF was induced before and after drug administration, according to a previously described procedure. The type of VF was examined before and 2 to 3 min after drug treatment. Each cat served as its own control. In some experiments, a β-adrenergic blocker (propranolol, 0.1-0.6 mg/kg) was administered after drug administration, in order to evaluate the neutralizing effect of the blocker on the compound-induced catecholamine levels. Table l below presents the results.

| SMILES | Relative activity in dosage of 1 mg/kg [%] | Relative activity in dosage of 2 mg/kg [%] |
| --- | --- | --- |
| CC(C)NCC(O)CN1c2ccccc2CCc2ccccc21.Cl (stereo not drawn) [Compound 25bir] | 50 | 100 |
| CC(C)NCC(O)CN1c2ccccc2CCc2ccccc21.Cl (stereo not drawn) [Compound 25bis] | 100 | 100 |
| CC(C)NCC(O)CN1c2ccccc2CCc2ccccc21.Cl (stereo not drawn) [Compound 25bi] | 100 | 100 |
